Where two headings read alike, the source gives them in different places. Values belong to the molecule of their own block, whether it stands above or below them.
What was measured:
bovine brain tubulin = test: Inhibition of tubulin polymerization; type: biochemical; settings: for IC50: 10 μM tubulin, extent of assembly after 20 min at 30° C., read-out: Inhibition of tubulin polymerization IC50, μM ± SD; for activity against tubulin / in inhibiting assembly (in words): purified tubulin
Protocol: Electrophoretically homogeneous bovine brain tubulin was purified from bovine brain as described previously (Hamel, et al., Separation of active tubulin and microtubule-associated proteins by ultracentrifugation and isolation of a component causing the formation of microtubule bundles, Biochemistry 1984, 23, 4173-4184). Reaction mixtures (0.24 mL during preincubation, 0.25 mL during incubation, with all concentrations referring to the final volume) contained 0.8 M monosodium glutamate (taken from 2.0 M stock solution adjusted to pH 6.6 with Hcl), 1.0 mg/mL (10 μM) tubulin, 4% (v/v) dimethyl sulfoxide, and varying concentrations of drug. Samples were incubated for 15 min at 30° C. and chilled on ice. GTP, required for polymerization, was added in 10 μL to a final concentration of 0.4 mM. Samples were transferred to cuvettes held at 0° C. by electronic temperature controllers in GILFORD model 250 recording spectrophotometers. Baselines were established, and the reaction was initiated by a jump (approximately 1 min) to 30° C. Extent of assembly after 20 min was the parameter used to determine IC50 values. […] In most experiments, four spectrophotometers were used, with two control reaction mixtures.

[1] = tested on: NCI 60 Cell-Line Human Tumor Screen; test: NCI 60 cell-line human tumor screen; type: cell-based; settings: read-out: Mean Panel GI50 (±S.D)
Excerpt: (§1) Compounds 3b, 3d, 1d, and 4a-f were comparatively evaluated in the NCI 60 cell-line human tumor screen (Boyd, Status of the NCI preclinical antitumor drug discovery screen. Implications for selection of new agents for clinical trial, CANCER: Principles and Practices of Oncology Updates, DeVita, et al. (Eds.), Lippincott: Philadelphia, 1989; Vol. 10, No. 3, pp. 1-12; Boyd, The Future of New Drug Development. Section I. Introduction to Cancer Therapy, Current Therapy in Oncology, Niederhuber, (Ed.), B. C. Decker, Inc.: Philadelphia, 1993; pp. 11-22; Boyd, et al., Data display and analysis strategies from NCI disease-oriented in vitro antitumor drug screen. In Cytotoxic Anticancer Drugs: Models and Concepts for Drug Discovery and Development, Valeriote, et al. (Eds.), Kluwer Academic Publishers: Amsterdam, 1992; pp. 11-34; Stinson, et al., Morphological and Immunocytochemical Characteristics of Human Tumor Cell Lines for Use in a Disease-Oriented Anticancer Drug Screen, Anticancer Res. 1992, 12,-1035-1054; Boyd, et al., Some Practical Considerations and Applications of the NCI in vitro Drug Discovery Screen, Drug Dev. Res. 1995, 34, 91-109).

tubulin = test: Inhibition of [3H]colchicine binding to tubulin; set-up: species or system bovine; settings: for Inhibition of colchicine binding % inhibition: 1.0 μM tubulin, 5.0 μM [3H]colchicine, 5.0 μM inhibitor, 10 min at 37° C.
Protocol: Reaction mixtures contained 0.1 mg/mL (1.0 μM) tubulin, 5.0 μM [3H]colchicine, and 5.0 μM inhibitor and were incubated for 10 min at 37° C.

CNS U251 = test: Human cancer cell line inhibition, CNS U251; type: cell-based; settings: U-251
Excerpt: as §1

pharynx FADU = test: Human cancer cell line inhibition, pharynx FADU; type: cell-based
Excerpt: as §1

prostate DU-145 = test: Human cancer cell line inhibition, prostate DU-145; type: cell-based
Excerpt: as §1

OVCAR-3 = test: Human cancer cell growth inhibition, ovarian OVCAR-3; type: cell-based
SK-MEL-5 = test: Human cancer cell growth inhibition, melanoma SK-MEL-5; type: cell-based
NCI-H460 = test: Human cancer cell growth inhibition, lung-NSC NCI-H460; type: cell-based
[2] = tested on: P388 Lymphocytic Leukemia Cell Line; test: Murine P388 lymphocytic leukemia cell line growth inhibition; type: cell-based
KM20L2 = test: Human cancer cell growth inhibition, colon KM20L2; type: cell-based
SF-295 = test: Human cancer cell growth inhibition, CNS SF-295; type: cell-based
A498 = test: Human cancer cell growth inhibition, renal A498; type: cell-based
[3] = Solubility in distilled water; type: physicochemical; settings: distilled water at 25° C.
Protocol: The deprotected phosphate (0.44 g, 1.10 mmol) was dissolved in anhydrous methanol (15 mL) and sodium methoxide ([…], 2.20 mmol) was added at room temperature. The cloudy solution was stirred for 20 hours and the reaction mixture was concentrated to a white solid that was washed with 2-propanol and recrystallized (3×) from water-acetone. The phenstatin prodrug (3d, 0.38g, 78% yield) was collected by filtration and found to give; LRFAB m/z 443.02 (M+H+), calculated 443.048, EIMS m/z (peak height) 318 (100%, M+—PO3Na2+H), 303 (12%), 195 (20%), 151 (23%); ^1H-NMR (D2O) δH 7.644 (1H, t, J2/61.8 Hz, H-2), 7.366 (1H, dd, J6/2 1.8 Hz, J6/58.5 Hz, H-6), 7.006 (1H, d, J5/6 8.5 Hz, H-5), 6.933 (2H, s, H-2′, 6′), 3.844 (3H, s, 4′-OCH3), 3.748 (6H, s, 3′, 5′-OCH3) 3.734 (3H, s, 4OCH3); ^13C-NMR (D2O, reference to CDCl3) δC 193.5 (C═O), 151.1; and ^31P-NMR (D2O, decoupled, […]) δP −1.965.

[4] = Homo sapiens, mean over NCI 60 cell-line panel, tested in triplicate
[5] = mean over NCI 60 cell-line panel, tested in triplicate

- IC50 (bovine brain tubulin): 15 ± 2 µM
- melting point: 124 to 125 °C
- Inhibition of colchicine binding % inhibition (tubulin): 0%
SMILES: COc1cc(C(=O)c2ccc3c(c2)OCO3)cc(OC)c1OC [Compound 4a, 3,4,5-trimethoxy-3′,4′-methylenedioxybenzophenone]
- activity against tubulin / in inhibiting assembly (in words) (bovine brain tubulin): only weak activity
- GI50 [1, 4]: 2.7 µM

SMILES: COc1cc(C(=O)c2cc(F)cc(F)c2)cc(OC)c1OC [Compound 4f, 3,5-difluoro-3′,4′,5′-trimethoxybenzophenone]
- IC50 (bovine brain tubulin): 39 ± 7 µM
- activity against tubulin / in inhibiting assembly (in words) (bovine brain tubulin): almost inert
- melting point: 121 to 123 °C
- GI50 ([1]; Homo sapiens): 4.94 µM
- Inhibition of colchicine binding % inhibition (tubulin): 0%

SMILES: COc1ccc(C=Cc2cc(OC)c(OC)c(OC)c2)cc1 [Compound 1e, reference compound]
- IC50 (bovine brain tubulin): 1.3 ± 0.2 µM
- Inhibition of colchicine binding % inhibition (tubulin): 97%

SMILES: COc1ccc(Cc2cc(OC)c(OC)c(OC)c2)cc1 [Compound 7b, reference compound]
- IC50 (bovine brain tubulin): 4.4 ± 0.2 µM
- Inhibition of colchicine binding % inhibition (tubulin): 56%

SMILES: COc1ccc(C(=O)c2cc(OC)c(OC)c(OC)c2)cc1OC(C)=O [Compound 3e, Phenstatin Acetate]
- IC50 (bovine brain tubulin): 3.5 ± 0.5 µM
- melting point: 164 to 165 °C
- GI50 (CNS U251): 0.0039 µg/mL
- G50 (pharynx FADU): 0.0055 µg/mL
- GI50 (prostate DU-145): 0.0029 µg/mL
- Inhibition of colchicine binding % inhibition (tubulin): 71%

- IC50 (bovine brain tubulin): 15 ± 2 µM
- Inhibition of colchicine binding % inhibition (tubulin): 1%
SMILES: COc1ccc(C(=O)c2cc(OC)c(OC)c(OC)c2)cc1OC [Compound 4c, 3,3′,4,4′,5-pentamethoxybenzophenone]
- GI50 [1, 4]: 5.11 µM

- IC50 (bovine brain tubulin): 11 ± 2 µM
- melting point: 104 to 105 °C
- Inhibition of colchicine binding % inhibition (tubulin): 7%
SMILES: COc1cc(C(=O)c2cc(C)cc(C)c2)cc(OC)c1OC [Compound 4b, 3,4,5-trimethoxy-3′,5′-dimethylbenzophenone]
- further fold drop in activity against tubulin (bovine brain tubulin; relative to 4d): 3 fold
- GI50 [1, 4]: 3.48 µM

SMILES: COc1ccc(/C=C\c2cc(OC)c(OC)c(OC)c2)cc1OP(=O)([O-])[O-].[Na+].[Na+] [Compound 1d, combretastatin A4 sodium phosphate, reference compound]
- IC50 (bovine brain tubulin): > 80 µM
- activity against tubulin / in inhibiting assembly (in words) (bovine brain tubulin): totally inactive
- GI50 (OVCAR-3): 0.023 µg/mL
- GI50 [1, 5]: 0.0128 µM
- Inhibition of colchicine binding % inhibition (tubulin): 4%
- GI50 (SK-MEL-5): 0.041 µg/mL
- GI50 (NCI-H460): 0.029 µg/mL
- GI50 [2]: 0.0004 µg/mL
- GI50 (KM20L2): 0.34 µg/mL
- GI50 (SF-295): 0.036 µg/mL
- GI50 (A498): 0.041 µg/mL

SMILES: COc1ccc(CCc2cc(OC)c(OC)c(OC)c2)cc1 [Compound 8b, reference compound]
- IC50 (bovine brain tubulin): 3.2 ± 0.3 µM
- Inhibition of colchicine binding % inhibition (tubulin): 54%

SMILES: COc1ccc(C(=O)c2cc(OC)c(OC)c(OC)c2)cc1OP(=O)([O-])[O-].[Na+].[Na+] [Compound 3d, Disodium Phenstatin 3-O-phosphate]
- IC50 (bovine brain tubulin): 21 ± 3 µM
- activity against tubulin / in inhibiting assembly (in words) (bovine brain tubulin): weak activity
- GI50 (OVCAR-3): 0.0025 µg/mL
- solubility [3]: 30 mg/mL
- GI50 [1, 5]: 0.0733 µM
- activity as an inhibitor of colchicine binding (in words) (tubulin): moderate activity
- Inhibition of colchicine binding % inhibition (tubulin): 37%
- activity relative to phenstatin in colchicine binding assay (tubulin; relative to phenstatin 3b): about 40%
- GI50 (SK-MEL-5): 0.0047 µg/mL
- GI50 (NCI-H460): 0.035 µg/mL
- GI50 [2]: <0.001 µg/mL
- GI50 (KM20L2): 0.27 µg/mL
- GI50 (SF-295): 0.012 µg/mL
- GI50 (A498): 0.05 µg/mL

SMILES: COc1ccc(CCc2cc(OC)c(OC)c(OC)c2)cc1O [Compound 8a, reference compound]
- IC50 (bovine brain tubulin): 2.1 ± 0.3 µM
- Inhibition of colchicine binding % inhibition (tubulin): 77%

- melting point: 131 to 132 °C
SMILES: COc1cc(C(=O)c2cc(Cl)cc(Cl)c2)cc(OC)c1OC [Compound 4e, 3,5-dichloro-3′,4′,5′-trimethoxybenzophenone]
- activity against tubulin / in inhibiting assembly (in words) (bovine brain tubulin): almost inert
- GI50 [1, 4]: 5.12 µM

SMILES: COc1ccc(/C=C\c2cc(OC)c(OC)c(OC)c2)cc1O [Compound 1b, combretastatin A-4, reference compound]
- Inhibition of colchicine binding % inhibition (tubulin): 97%

SMILES: COc1ccc(Cc2cc(OC)c(OC)c(OC)c2)cc1O [Compound 7a, reference compound]
- IC50 (bovine brain tubulin): 3.3 ± 0.5 µM
- Inhibition of colchicine binding % inhibition (tubulin): 65%

SMILES: COc1cc(OC)cc(C(=O)c2cc(OC)c(OC)c(OC)c2)c1 [Compound 4d, 3,3′,4,5,5′-pentamethoxybenzophenone]
- IC50 (bovine brain tubulin): 3.6 ± 0.8 µM
- fold less potent than phenstatin in inhibiting tubulin polymerization (bovine brain tubulin; relative to phenstatin 3b): 3-4 fold
- melting point: 121 to 122 °C
- GI50 ([1]; Homo sapiens): 0.543 µM
- Inhibition of colchicine binding % inhibition (tubulin): 58%
